# According to US12012404B2, “Pyrimidoheterocyclic compounds and application thereof” (D3 BIO (WUXI) CO., LTD., priority 2020, dated 2024):
# Read-outs that look alike come from different tables or passages of the source.
# What was measured:
# [1] = tested on: plasma protein of CD-1 mice; experiment: Protein binding rate by equilibrium dialysis, CD-1 mice plasma; type: in vitro ADME; conditions: for Protein unbound rate: CD-1 mice plasma, 2 μM, dialysis 4 hours
# Protocol: (§1) Purpose of the assay: Protein binding rate of the assay compounds in plasma of CD-1 mice, SD rats, beagle dogs, cynomolgus monkeys and human was determined by equilibrium dialysis.
# (§2) Procedure of the assay: Plasma samples with a compound concentration of 2 μM were prepared using plasma of the above five species, placed in a 96-well equilibrium dialysis device, and dialyzed with phosphate buffer solution at 37±1° C. for 4 hours. Warfarin was used as the control compound in this assay. The concentrations of the assay compounds in plasma and dialysis buffer were determined by LC-MS/MS method.
# [2] = Pharmacokinetics by oral administration and intravenous injection in CD mice; type: in vivo; conditions: for AUCu: AUC0-last × PPB(Unbound %); for Peak concentration, Cmax, u: Cmax × PPB(Unbound %); for Cmax: read-out: Peak concentration, Cmax; for Vd: CD, iv, 2.39 mg/kg
# Protocol: 2) Assay on the Pharmacokinetics of the Assay Compounds by Oral Administration and Intravenous Injection in CD Mice
# The assay compound was mixed with 5% dimethyl sulfoxide/95% (10% hydroxypropyl-β-cyclodextrin) solution. The mixture was vortexed and sonicated to prepare a 1 mg/mL clear solution, which was filtered through a microporous membrane for later use. Male CD mice aged 7 to 10 weeks were selected, and administered candidate compound solutions intravenously or orally. Whole blood was collected for a certain period of time, and prepared to obtain plasma. Drug concentration was analyzed by LC-MS/MS method, and pharmacokinetic parameters were calculated by Phoenix WinNonlin software (Pharsight, USA).
# [3] = tested on: plasma protein of beagle dogs; experiment: Protein binding rate by equilibrium dialysis, beagle dogs plasma; type: in vitro ADME; conditions: 2 μM, dialysis 4 hours
# Protocol: as §1, §2
# [4] = tested on: plasma protein of cynomolgus monkeys; experiment: Protein binding rate by equilibrium dialysis, cynomolgus monkeys plasma; type: in vitro ADME; conditions: 2 μM, dialysis 4 hours
# Protocol: as §1, §2
# [5] = Metabolic stability in hepatocytes, human; type: in vitro ADME
# Protocol: Purpose of the assay: Metabolic stabilities of assay compounds in hepatocytes of CD-1 mice, SD rats, beagle dogs, cynomolgus monkeys, and human were assayed, respectively.
# Procedure of the assay: Several 96-well sample precipitation plates were prepared and named T0, T15, T30, T60, T90, T120, TO-MC, T120-MC and blank substrates, respectively. The recovery medium and incubation medium were taken out in advance and placed in a 37° C. water bath for pre-heating. Cryopreserved hepatocytes were removed from the liquid nitrogen tank and immediately immersed in a 37° C. water bath (approximately 90 seconds). After the cryopreserved hepatocytes had thawed and loosened, they were poured into a centrifuge tube containing 40 mL of recovery medium, and the tube was gently inverted to allow the cells to be resuspended in the recovery medium. The cells were centrifuged at 100×g at room temperature for 5 min, and the supernatant was removed. The hepatocytes were resuspended in an appropriate volume of incubation medium, and the cell viability was calculated by Trypan Blue staining method. 198 μL of hepatocyte suspension (0.51×10^6 cells/mL) was added to the preheated incubation plate. For the culture medium control group, 198 μL of hepatocyte-free incubation medium was added to T0-MC and T120-MC incubation plate. All incubation plates were pre-incubated in a 37° C. incubator for 10 minutes. Then 2 μL of working solutions of the assay sample and the control compound were added, respectively, and the mixture was mixed well. The incubation plate was immediately put into the shaker in the incubator, and the reaction was initiated while starting the timer. For each time point of each compound, 2 duplicate samples were prepared. The incubation conditions were 37° C., saturated humidity, and 5% CO2. In the assay system, the final concentration of the assay sample was 1 μM, the final concentration of the control sample was 3 μM, the final concentration of hepatocytes was 0.5×10^6 cells/mL, and the final concentration of the total organic solvent was 0.96%, of which the final concentration of DMSO was 0.1%. At the end of the incubation for the corresponding time point, the incubation plate was taken out, and 25 μL of a mixture of compound and control compound with cells was added to the sample plate containing 125 μL of stop solution (200 ng/mL tolbutamide and labetalol in acetonitrile). For the Blank sample plate, 25 μL of hepatocyte-free incubation medium was added directly. After sealing, all sample plates were shaken on a shaker at 600 rpm for 10 minutes, and then centrifuged at 3220×g for 20 minutes. Supernatants of the assay sample and the control sample were diluted with ultrapure water at a ratio of 1:3. All samples were mixed well and analyzed by LC/MS/MS.
# [6] = intravenous injection, 2.39 mg/kg (17), 2.0 mg/kg (8B)
# [7] = oral, 14.7 mg/kg (17), 10.3 mg/kg (8B)
# [8] = male, mouse, plasma, oral, 14.7 mg/kg (17), 10.3 mg/kg (8B)
compound,measurement,setting,value
"C=C(F)C(=O)N1CCN(c2nc(OCC3CCCN3C)nc3c2COC(c2c(F)c(N)cc(C)c2C(F)(F)F)C3)CC1CC#N.Cl (single isomer, unassigned) [Compound 8B hydrochloride]",Protein unbound rate,[1],12.0
same,Plasma protein unbound rate PPB (Unbound %),"[1]; mice, as listed in PK Table 9",12.0%
same,AUC0-last,[2]; [6],1.297 µM·h
same,"Apparent volume of distribution, Vdss",[2]; [6],3.9 L/kg
same,"Clearance rate, CL",[2]; [6],40.6 mL/min/kg
same,"Half-life period, T1/2",[2]; [6],1.7 h
same,AUCu,[2]; [6],0.1556 µM·h
same,"Apparent volume of distribution, Vdss, u","[2]; intravenous injection, 2.39 mg/kg (17), 2.0 mg/kg (8B), Vdss/PPB(Unbound %)",32.3 L/kg
same,AUC0-last,[2]; [7],1.422 µM·h
same,Bioavailability F,[2]; [7],21.9%
same,"Time-to-peak, Tmax",[2]; [7],1.0 h
same,AUCu,[2]; [7],0.1706 µM·h
same,"Peak concentration, Cmax, u",[2]; [7],51.7 nM
same,Cmax,[2]; [7],431 nM
same,Protein unbound rate,[3],6.0
same,Protein unbound rate,[4],23.9
same,CLint(hep),[5]; 1 μM,6.9 μL/min/10^6
same,CLint(liver),[5]; 1 μM,19.3 mL/min/kg
same,T1/2,[5]; 1 μM,3.325 h
C=C(F)C(=O)N1CCN(c2nc(OC[C@@]34CCCN3C[C@H](F)C4)nc3c2COC(c2c(F)c(N)cc(C)c2C(F)(F)F)C3)C[C@@H]1CC#N (stereo partly shown) [Compound 17],Protein unbound rate,[1],1.5
same,AUCu,[2]; [6],0.0202 µM·h
same,Vd,"[2]; male, mouse, plasma, intravenous injection, 2.39 mg/kg (17), 2.0 mg/kg (8B), Vdss/PPB(Unbound %), read-out: Apparent volume of distribution, Vdss, u",169 L/kg
same,Vd,"[2]; male, mouse, plasma, intravenous injection, 2.39 mg/kg (17), 2.0 mg/kg (8B), read-out: Apparent volume of distribution, Vdss",2.6 L/kg
same,AUC(0-t),"[2]; male, mouse, plasma, intravenous injection, 2.39 mg/kg (17), 2.0 mg/kg (8B)",1.31 µM·h
same,clearance,"[2]; male, mouse, plasma, intravenous injection, 2.39 mg/kg (17), 2.0 mg/kg (8B), read-out: Clearance rate, CL",37.3 mL/min/kg
same,half-life,"[2]; male, mouse, plasma, intravenous injection, 2.39 mg/kg (17), 2.0 mg/kg (8B), read-out: Half-life period, T1/2 (converted)",1 h
same,AUC(0-t),[2]; [8],2.4 µM·h
same,bioavailability,"[2]; male, mouse, plasma, oral, 14.7 mg/kg (17), 10.3 mg/kg (8B), read-out: Bioavailability F",24.4%
same,Cmax,[2]; [8],1460 nM
same,Tmax,"[2]; male, mouse, plasma, oral, 14.7 mg/kg (17), 10.3 mg/kg (8B), read-out: Time-to-peak, Tmax",0.25 h
same,AUCu,[2]; [7],0.037 µM·h
same,"Peak concentration, Cmax, u",[2]; [7],22.5 nM
same,Protein unbound rate,[3],3.3
same,Protein unbound rate,[4],7.8
same,CLint(hep),[5]; 1 μM,13.9 μL/min/10^6
same,half-life at 1 μM,[5]; cryopreserved hepatocytes,1.66 h
same,CLint scaled at 1 μM,"[5]; cryopreserved hepatocytes, read-out: CLint(liver)",38.7 mL/min/kg
